The values below come from US8771665B2 (Cocrystal Discovery, Inc., priority 2010, dated 2014).

Assay [1] deals with T1, HCV1b NS5B polymerase delta 21 (Hepatitis C virus genotype 1b, UniProt P26663).
T1 construct: purified HCV1b NS5B polymerase delta 21
The assay is described as follows: RNA-Dependent RNA HCV NS5B (Polymerase) Assay and IC50 Determination. It is filed as biochemical. The method in brief: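 Purified NS5B Δ21 (0.6 μg) with polyA:U16 template, 10 μM UTP plus α-32P UTP in Tris-HCl pH 7.5, 5 mM MgCl2, 0.5% Triton X-100, 60 min at 23°C with varied compound concentrations. Radiolabelled RNA captured on filters, quantified by phosphorimaging; IC50 from triplicate assays.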

The next assay relates to HCV1b replicon. The assay is described as follows: HCV Replicon Assay and EC50 Determination (Huh-7 cells, luciferase reporter). It is filed as cell-based. Particulars: Hepatitis C virus; Huh-7 cell line with HCV1b replicon containing luciferase reporter, 72 hr, triplicate assays. As to the method:
HCV Replicon Assay and EC50 Determination
The antiviral activity of compounds against hepatitis C virus was determined by a hepatitis C virus replicon reporter cell line developed by Bartenschlager (Lohmann et al., Science 1999, 285:110-113). This cell-based assay utilized a liver cell carcinoma (Huh-7) cell line stably transformed with an HCV1b replicon containing a luciferase reporter gene. Varied concentrations of compounds were added to the reporter cell line, and further incubated at 37° C. for 72 hr in DMEM supplemented with 10% FCS. The inhibitory effects of experimental compounds or the reference compound, interferon alpha (INFα), on HCV replication were measured by luciferase activity using the Britelite™ plus luminescence reporter gene kit (Perkin Elmer, Shelton, Conn.). The Britelite plus reagent was added to the 96-well plates containing the HCV reporter cells, and luminescence was measured within 15 min using a Wallac 1450 Microbeta® Trilux liquid scintillation counter. EC50 values were calculated using GraFit 6 and GraphPad Prism 5 from triplicate HCV replicon assays.

T1 sequence (P26663 2420-2989): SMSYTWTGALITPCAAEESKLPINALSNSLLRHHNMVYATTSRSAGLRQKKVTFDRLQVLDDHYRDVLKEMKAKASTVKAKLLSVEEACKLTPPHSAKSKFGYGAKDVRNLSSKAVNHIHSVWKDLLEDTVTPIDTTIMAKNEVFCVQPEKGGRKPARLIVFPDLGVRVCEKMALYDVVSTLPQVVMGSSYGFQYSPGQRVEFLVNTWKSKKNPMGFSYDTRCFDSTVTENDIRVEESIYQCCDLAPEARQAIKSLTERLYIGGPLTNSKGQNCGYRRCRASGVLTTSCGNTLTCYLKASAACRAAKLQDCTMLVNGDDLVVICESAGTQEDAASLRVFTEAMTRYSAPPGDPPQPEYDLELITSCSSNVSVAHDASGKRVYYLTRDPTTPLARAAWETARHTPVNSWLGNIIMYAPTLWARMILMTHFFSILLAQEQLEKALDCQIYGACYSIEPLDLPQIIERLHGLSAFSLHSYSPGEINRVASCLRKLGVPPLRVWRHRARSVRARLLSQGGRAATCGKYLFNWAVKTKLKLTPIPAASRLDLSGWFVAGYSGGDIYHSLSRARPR

What is called IC50 is the concentration that inhibits the measured activity by half. Low values mean greater potency in that assay, high ones weaker potency in that assay. As a reminder, the EC50 is the concentration giving half of the maximal effect. With `CC1CCC(C2=C(c3cc(-c4ccc(-c5cc6ncccn6n5)cc4)sc3C(=O)O)CCN(C)C2)CC1` (stereo not drawn) [Example 005, 3-[1-Methyl-5-(4-methyl-cyclohexyl)-1,2,3,6-tetrahydro-pyridin-4-yl]-5-(4-pyrazolo[1,5-a]pyrimidin-2-yl-phenyl)-thiophene-2-carboxylic acid], the IC50 in assay [1] was less than 3 µM. The compound also registered an EC50 with HCV1b replicon of less than 3000 nM.
Compound `CC1CCC(C2=C(c3cc(C#CC(C)(C)C)sc3C(=O)O)CCN(C)C2)CC1` (stereo not drawn) [Example 003, 5-(3,3-Dimethyl-but-1-ynyl)-3-[1-methyl-5-(4-methyl-cyclohexyl)-1,2,3,6-tetrahydro-pyridin-4-yl]-thiophene-2-carboxylic acid] gave an IC50 in assay [1] of less than 3 µM. The compound also came in with a concentration giving a half-maximal response (EC50) in the assay on HCV1b replicon of less than 3000 nM.
In assay [1], `Cc1cc(C)n2nc(CN3CCC(c4cc(-c5ccc(NC(=O)c6cscn6)cc5)sc4C(=O)O)=C(C4CCC(C)CC4)C3)nc2n1` (stereo not drawn) [Example 130, 3-[1-(5,7-Dimethyl-[1,2,4]triazolo[1,5-a]pyrimidin-2-ylmethyl)-5-(4-methyl-cyclohexyl)-1,2,3,6-tetrahydro-pyridin-4-yl]-5-{4-[(thiazole-4-carbonyl)-amino]-phenyl}-thiophene-2-carboxylic acid] had an IC50 of less than 3 µM. The compound also showed an EC50 in the assay with HCV1b replicon of less than 3000 nM.
The like results for `CC1CC=C(C2=C(c3cc(-c4ccccc4)sc3C(=O)O)CCN(C)C2)CC1` (stereo not drawn) [Example 109, 3-[1-Methyl-5-(4-methyl-cyclohex-1-enyl)-1,2,3,6-tetrahydro-pyridin-4-yl]-5-phenyl-thiophene-2-carboxylic acid] were, in that order, less than 3 µM and greater than 10000 nM.
The like results for `CC1CCC(C2=C(c3cc(-c4ccc(NC(=O)c5cscn5)cc4)sc3C(=O)O)CCN(C)C2)CC1` (stereo not drawn) [Example 013, 3-[1-Methyl-5-(4-methyl-cyclohexyl)-1,2,3,6-tetrahydro-pyridin-4-yl]-5-{4-[(thiazole-4-carbonyl)-amino]-phenyl}-thiophene-2-carboxylic acid] were, in that order, less than 3 µM and less than 3000 nM.
The like results for `CC1CCC(C2=C(c3cc(-c4ccccc4)sc3C(=O)O)CCN(C)C2)CC1` (stereo not drawn) [Example 001, 3-[1-Methyl-5-(4-methyl-cyclohexyl)-1,2,3,6-tetrahydro-pyridin-4-yl]-5-phenyl-thiophene-2-carboxylic acid] were, in that order, less than 3 µM and less than 3000 nM.
